Data reported in ChEMBL document CHEMBL1201862, “PubChem BioAssay data set” (2004).
Activity calls are given as the source filed them. Rule as the data show it: actives have a measured IC50 and inactives only a lower limit.

Target: Envelope glycoprotein gp160 (Human immunodeficiency virus 1, UniProt Q6QLK5)
Assay: cell-free HIV fusion peptide-binding blockers – biochemical, uHTS, fluorescence dequenching, […] (AID 1986)

Sequence of Envelope glycoprotein gp160 (Q6QLK5 whole entry, the tested form may be a part): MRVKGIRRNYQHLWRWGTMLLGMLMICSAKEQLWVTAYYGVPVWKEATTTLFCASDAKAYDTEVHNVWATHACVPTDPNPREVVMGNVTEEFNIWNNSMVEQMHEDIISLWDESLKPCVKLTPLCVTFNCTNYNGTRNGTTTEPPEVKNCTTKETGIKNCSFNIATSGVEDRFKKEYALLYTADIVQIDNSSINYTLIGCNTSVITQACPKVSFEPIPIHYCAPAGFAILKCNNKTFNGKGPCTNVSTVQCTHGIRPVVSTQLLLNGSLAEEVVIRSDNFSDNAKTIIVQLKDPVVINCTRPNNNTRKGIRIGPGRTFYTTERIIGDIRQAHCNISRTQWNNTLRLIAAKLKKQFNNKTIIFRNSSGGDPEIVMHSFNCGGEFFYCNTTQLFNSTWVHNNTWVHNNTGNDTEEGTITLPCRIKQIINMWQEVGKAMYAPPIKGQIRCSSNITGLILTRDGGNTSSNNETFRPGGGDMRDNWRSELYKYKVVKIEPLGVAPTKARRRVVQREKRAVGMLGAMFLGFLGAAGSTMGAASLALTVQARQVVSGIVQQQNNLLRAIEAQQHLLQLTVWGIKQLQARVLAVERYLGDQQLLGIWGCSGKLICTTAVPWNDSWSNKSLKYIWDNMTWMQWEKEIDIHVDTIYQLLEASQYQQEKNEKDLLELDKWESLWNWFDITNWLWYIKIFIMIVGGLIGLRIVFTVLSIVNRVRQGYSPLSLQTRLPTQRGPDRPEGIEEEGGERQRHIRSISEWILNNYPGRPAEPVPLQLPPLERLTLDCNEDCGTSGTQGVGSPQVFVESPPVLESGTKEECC

**Q.** O=C(CSc1nc2ccccc2c(=O)n1Cc1ccccc1)Nc1ccc(Br)cc1C(=O)O was tested. Which IC50 did it give?
**A.** 14.4 µM (active)

**Q.** For Cc1ccc(F)c(NC(=O)/C(C#N)=C(\O)c2ccc(C(C)(C)C)cc2)c1, which IC50 is on record?
**A.** 19.6 µM (active)

**Q.** For O=c1/c(=C\c2cc([N+](=O)[O-])cc([N+](=O)[O-])c2O)sc2nc3ccccc3n12, which IC50 is on record?
**A.** 6.01 µM (active)
